From publication PMC10021052, “Novel multivalent S100A8 inhibitory peptides attenuate tumor progression and metastasis by inhibiting the TLR4-dependent pathway” (Cancer Gene Therapy, 2023)
Entries after “also recorded” stand apart in the source; their conditions may differ.

How the values were obtained:
[1] = test system: PKH26-labeled LLC cells; assay: Lung dissemination of PKH26-labeled LLC cells in TCM-sensitized mice; format: in vivo, C57BL/6J mice; conditions: 10 mg/kg i.p. 1 h before last TCM injection; lungs 16 h after cells; 5–6 mice per group; *P < 0.05 vs control
[2] = test system: SW480-transplanted xenograft; assay: Tumor growth in SW480-transplanted xenograft model; format: in vivo, Balb nu/nu mice; conditions: every 3 days; for tumor growth, divalent peptide3A5 monotherapy: SW480 xenograft, various doses, n = 5–6 mice per group; for tumor growth, combination with 5-FU: divalent peptide3A5 5 mg/kg i.p. + 5-FU 20 mg/kg i.p.
[3] = test system: subcutaneous SW480 tumors; assay: Immunohistochemistry of subcutaneous SW480 tumors: proliferation and caspase-3; format: in vivo, Balb nu/nu mice; conditions: Supplementary Fig. 2
Protocol: (§1) To immunostain tumor vasculatures, the cryo sections (6 µm) obtained from frozen primary tumors, were incubated with anti-CD31 (BD Pharmingen, Cat No. 550274), and/or anti-α-SMA-Cy3 (Sigma-Aldrich, Cat No. C6198) followed by AlexaFlour 488-conjugated rat IgG secondary antibodies (Thermo Fisher Scientific) were used to visualize the signals by a confocal microscopy (LSM-710; Carl Zeiss). DAPI staining was used for nuclear staining. For immunohistochemistry, the paraffin-embedded sections were cut 4 µm thick and then deparaffinized, rehydrated and then treated for antigen retrieval. The sections were incubated with the indicated antibody overnight, followed by incubation with ImmPRESS HRP Reagent (Vector, Newark, CA). ImmPACT DAB (Vector) was used for visualization of the signals. The images were captured by BZ-X800 (Keyence, Osaka, Japan).

[4] = test system: SW480 cells; assay: qPCR, S100A8-mediated IL-8 and VEGF mRNA induction in SW480 cells; format: cell-based, human; conditions: qPCR, normalized to β-actin
[5] = test system: tumor vasculature of SW480 xenograft; assay: Tumor vasculature and pericyte coverage (CD31, α-SMA) in SW480 tumors; format: in vivo, Balb nu/nu mice
Protocol: as §1

[6] = test system: C57BL6 mice; assay: Toxicity in C57BL6 mice; format: in vivo, mouse; conditions: Supplementary Table 1
Text: (§2) Because S100A8 inhibitory peptides target S100A8-TLR4/MD-2, which plays a role in innate immunity, the complete functional activities of S100A8 inhibitory peptides are expected to be observed in immunocompetent models. To date, syngeneic models are one of the only options to test physiological interactions between tumors and immune cells. […] LLC cells were identified as non-responders to anti-PD-1/programmed death-ligand 1 (PD-L1) therapy. […] We then examined the effect of divalent peptide3A5 in mouse MC38 colorectal cancer cells used as anti-PD-1 responder cells. We previously confirmed that MC38 endogenously expressed TLR4/MD-2 [8].

[7] = test system: MC38 colorectal cancer cells; assay: Tumor suppression in MC38 model; format: in vivo, mouse; conditions: with anti-PD-1 antibody, Supplementary Fig. 3B
Text: as §2

Sequence: FQEFAILVIK [Divalent peptide3A5, divalent peptide of peptide3A5 using Fmoc-Lys (Fmoc)-OH to form two branches]
- pulmonary recruitment of PKH26-labeled LLC cells / lung metastasis [1]: suppresses the pulmonary recruitment of PKH26-labeled LLC cells
- tumor growth, divalent peptide3A5 monotherapy [2]: inhibits tumor growth
- tumor growth, divalent peptide3A5 monotherapy ([2]; listed as divalent peptide3A5): suppressed tumor progression in a dose-dependent manner; also recorded: dose-dependently inhibited tumor growth; also recorded: inhibited tumor growth in vivo
- tumor growth, combination with 5-FU [2]: synergistically inhibits tumor growth with 5-FU combination
- tumor growth, combination with 5-FU ([2]; listed as divalent peptide3A5): synergistically suppressed tumor growth
- tumor growth, combination with bevacizumab ([2]; divalent peptide3A5 5 mg/kg i.p. + bevacizumab 4 mg/kg i.p.): synergistically suppressed tumor growth; also recorded: synergistically inhibited tumor growth with bevacizumab
- caspase-3 activation in SW480 tumors [3]: caused caspase-3 activation
- tumor cell proliferation in SW480 tumors [3]: suppressed tumor cell proliferation
- S100A8-mediated VEGF induction (mRNA) [4]: efficiently inhibited
- S100A8-mediated IL-8 induction (mRNA) ([4]; *P < 0.05 vs S100A8): efficiently inhibited
- pericyte coverage (α-SMA/CD31) ([5]; 5 mg/kg or 10 mg/kg): significantly increased the pericyte coverage
- tumor vasculature ([5]; anti-CD31 staining): significantly diminished
- toxicity in C57BL6 mice [6]: did not display any toxicity
- MC38 tumor suppression, combination with anti-PD-1 [7]: significantly improved the efficacy of anti-PD-1 therapy; also recorded: increased the efficacy of anti-PD-1 therapy
